# Experimental data taken from PubChem BioAssay AID328 (DTP/NCI, 2004).
# Toxic doses and inconclusive results are not listed.
# Test system: BDF1 mice, P388 leukemia ip, median survival T/C
# Experiment: NCI In Vivo Anticancer Drug Screen. Data for tumor model P388 Leukemia (intraperitoneal) in B6D2F1 (BDF1) mice
# Settings: endpoint: median survival time, higher = longer survival
# Method in brief: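 Antitumour effect was judged in vivo: survival in drug-treated mice, normalised to that of vehicle-dosed controls, gives the reported T/C.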
# [1] = dose: 6.25 mg/kg/injection, schedule: Q01DX009 (ip), vehicle: saline
# [2] = dose: 25.0 mg/kg/injection, schedule: Q04DX003 (ip), vehicle: saline
# [3] = dose: 100.0 mg/kg/injection, schedule: Q01DX009 (ip), vehicle: saline with Tween-80
# [4] = dose: 200.0 mg/kg/injection, schedule: Q01DX009 (ip), vehicle: saline with Tween-80
# [5] = dose: 100.0 mg/kg/injection, schedule: Q04DX003 (ip), vehicle: Klucel (hydroxypropylcellulose) (HPC)
# [6] = dose: 200.0 mg/kg/injection, schedule: Q04DX003 (ip), vehicle: Klucel (hydroxypropylcellulose) (HPC)
# [7] = dose: 400.0 mg/kg/injection, schedule: Q04DX003 (ip), vehicle: Klucel (hydroxypropylcellulose) (HPC)
# [8] = dose: 100.0 mg/kg/injection, schedule: Q01DX009 (ip), vehicle: Klucel (hydroxypropylcellulose) (HPC)
# [9] = dose: 200.0 mg/kg/injection, schedule: Q01DX009 (ip), vehicle: Klucel (hydroxypropylcellulose) (HPC)
# [10] = dose: 400.0 mg/kg/injection, schedule: Q01DX009 (ip), vehicle: Klucel (hydroxypropylcellulose) (HPC)
# [11] = dose: 25.0 mg/kg/injection, schedule: Q01DX009 (ip), vehicle: water
# [12] = dose: 100.0 mg/kg/injection, schedule: Q01DX009 (ip), vehicle: water
# [13] = dose: 100.0 mg/kg/injection, schedule: Q04DX003 (ip), vehicle: saline with Tween-80
# [14] = dose: 200.0 mg/kg/injection, schedule: Q04DX003 (ip), vehicle: saline with Tween-80
# [15] = dose: 50.0 mg/kg/injection, schedule: Q04DX003 (ip), vehicle: saline with Tween-80
compound,measurement,setting,value
COc1ccc(C(C#N)CC(=O)c2ccc(OC)c(OCc3ccccc3)c2)cc1OC (centres undefined),T/C,[1],90 % of control
same,T/C,"dose: 12.5 mg/kg/injection, schedule: Q01DX009 (ip), vehicle: saline",95 % of control
same,T/C,"dose: 25.0 mg/kg/injection, schedule: Q01DX009 (ip), vehicle: saline",91 % of control
same,T/C,[2],114 % of control
same,T/C,"dose: 50.0 mg/kg/injection, schedule: Q01DX009 (ip), vehicle: saline",99 % of control
same,T/C,"dose: 50.0 mg/kg/injection, schedule: Q04DX003 (ip), vehicle: saline",96 % of control
same,T/C,"dose: 100.0 mg/kg/injection, schedule: Q01DX009 (ip), vehicle: saline",90 % of control
same,T/C,"dose: 100.0 mg/kg/injection, schedule: Q04DX003 (ip), vehicle: saline",96 % of control
same,T/C,"dose: 200.0 mg/kg/injection, schedule: Q01DX009 (ip), vehicle: saline",86 % of control
same,T/C,"dose: 200.0 mg/kg/injection, schedule: Q04DX003 (ip), vehicle: saline",107 % of control
same,T/C,"dose: 400.0 mg/kg/injection, schedule: Q01DX009 (ip), vehicle: saline",95 % of control
same,T/C,"dose: 400.0 mg/kg/injection, schedule: Q04DX003 (ip), vehicle: saline",100 % of control
ICCCCCCCCCC[n+]1ccc2ccccc2c1,T/C,"dose: 12.5 mg/kg/injection, schedule: Q01DX005 (ip), vehicle: saline with Tween-80",120 % of control
same,T/C,"dose: 25.0 mg/kg/injection, schedule: Q01DX005 (ip), vehicle: saline with Tween-80",122 % of control
Cc1ccc(S(=O)(=O)/C=C/c2ccccc2)cc1,T/C,"dose: 50.0 mg/kg/injection, schedule: Q01DX009 (ip), vehicle: saline with Tween-80",100 % of control
same,T/C,[3],100 % of control
same,T/C,[4],103 % of control
O=c1cc(CO)[nH]cc1O,T/C,"dose: 177.0 mg/kg/injection, schedule: Q01DX009 (ip), vehicle: Klucel (hydroxypropylcellulose) (HPC)",119 % of control
COc1cc(N2CCOCC2)ccc1N,T/C,"dose: 1.56 mg/kg/injection, schedule: Q01DX009 (ip), vehicle: saline",154 % of control
same,T/C,[1],122 % of control
same,T/C,[2],118 % of control
same,T/C,"dose: 44.0 mg/kg/injection, schedule: Q04DX003 (ip), vehicle: saline",108 % of control
same,T/C,"dose: 66.0 mg/kg/injection, schedule: Q04DX003 (ip), vehicle: saline",116 % of control
COc1ccc2c(OC)c3ccoc3nc2c1OC,T/C,"dose: 1.57 mg/kg/injection, schedule: Q01DX009 (ip), vehicle: Klucel (hydroxypropylcellulose) (HPC)",89 % of control
same,T/C,"dose: 3.13 mg/kg/injection, schedule: Q01DX009 (ip), vehicle: Klucel (hydroxypropylcellulose) (HPC)",89 % of control
same,T/C,"dose: 6.25 mg/kg/injection, schedule: Q01DX009 (ip), vehicle: Klucel (hydroxypropylcellulose) (HPC)",101 % of control
CC(C)Cn1c(Cl)c(/C=N\Nc2ccccc2[N+](=O)[O-])c2ccccc21,T/C,"dose: 100.0 mg/kg/injection, schedule: Q04DX002 (ip), vehicle: Klucel (hydroxypropylcellulose) (HPC)",92 % of control
same,T/C,"dose: 200.0 mg/kg/injection, schedule: Q04DX002 (ip), vehicle: Klucel (hydroxypropylcellulose) (HPC)",99 % of control
CN(C)C(=O)C(=O)C1C=Cc2ccccc21 (centres undefined),T/C,"dose: 100.0 mg/kg/injection, schedule: Q01DX001 (ip), vehicle: Klucel (hydroxypropylcellulose) (HPC)",100 % of control
same,T/C,[5],100 % of control
same,T/C,"dose: 200.0 mg/kg/injection, schedule: Q01DX001 (ip), vehicle: Klucel (hydroxypropylcellulose) (HPC)",95 % of control
same,T/C,[6],104 % of control
same,T/C,"dose: 400.0 mg/kg/injection, schedule: Q01DX001 (ip), vehicle: Klucel (hydroxypropylcellulose) (HPC)",90 % of control
same,T/C,[7],104 % of control
Nc1ccc(S(=O)(=O)N/N=C/c2ccccc2[N+](=O)[O-])cc1,T/C,"dose: 6.25 mg/kg/injection, schedule: Q01DX009 (ip), vehicle: saline with Tween-80",95 % of control
same,T/C,"dose: 12.5 mg/kg/injection, schedule: Q01DX009 (ip), vehicle: saline with Tween-80",100 % of control
same,T/C,"dose: 25.0 mg/kg/injection, schedule: Q01DX009 (ip), vehicle: saline with Tween-80",101 % of control
CC(C(=O)O)N1C(=O)c2ccccc2C1=O (centres undefined),T/C,[8],109 % of control
same,T/C,[5],100 % of control
same,T/C,[9],109 % of control
same,T/C,[6],104 % of control
same,T/C,[10],118 % of control
same,T/C,[7],100 % of control
CC([NH-])C(=O)O.CC([NH-])C(=O)O.CC([NH-])C(=O)O.[Co+3] (centres undefined),T/C,[11],103 % of control
same,T/C,"dose: 50.0 mg/kg/injection, schedule: Q01DX009 (ip), vehicle: water",92 % of control
same,T/C,[12],92 % of control
same,T/C,"dose: 100.0 mg/kg/injection, schedule: Q04DX003 (ip), vehicle: water",116 % of control
same,T/C,"dose: 200.0 mg/kg/injection, schedule: Q04DX003 (ip), vehicle: water",90 % of control
O=C(CCl)N1c2ccccc2Oc2cc3ccccc3cc21,T/C,[3],104 % of control
same,T/C,[13],104 % of control
same,T/C,[4],90 % of control
same,T/C,[14],100 % of control
same,T/C,"dose: 400.0 mg/kg/injection, schedule: Q01DX009 (ip), vehicle: saline with Tween-80",104 % of control
same,T/C,"dose: 400.0 mg/kg/injection, schedule: Q04DX003 (ip), vehicle: saline with Tween-80",113 % of control
Cc1c2c(nn1-c1ccccn1)C(=O)C=C(Nc1ccccc1)C2=O,T/C,"dose: 8.8 mg/kg/injection, schedule: Q01DX009 (ip), vehicle: carboxymethylcellulose (CMC)",91 % of control
ClC(Cl)(Cl)c1nc2nccnc2[nH]1,T/C,"dose: 44.0 mg/kg/injection, schedule: Q04DX003 (ip), vehicle: Klucel (hydroxypropylcellulose) (HPC)",104 % of control
same,T/C,[15],109 % of control
same,T/C,"dose: 66.0 mg/kg/injection, schedule: Q04DX003 (ip), vehicle: Klucel (hydroxypropylcellulose) (HPC)",108 % of control
same,T/C,"dose: 66.0 mg/kg/injection, schedule: Q04DX003 (ip), vehicle: saline with Tween-80",109 % of control
same,T/C,[13],104 % of control
same,T/C,"dose: 150.0 mg/kg/injection, schedule: Q04DX003 (ip), vehicle: Klucel (hydroxypropylcellulose) (HPC)",100 % of control
Cc1ccc(C2NC(=O)c3ccccc3N2)c(C)c1 (centres undefined),T/C,[8],110 % of control
same,T/C,[9],110 % of control
same,T/C,[10],120 % of control
C[N+](C)(C)c1ccc2ccccc2n1,T/C,"dose: 3.12 mg/kg/injection, schedule: Q01DX001 (ip), vehicle: Klucel (hydroxypropylcellulose) (HPC)",122 % of control
same,T/C,"dose: 6.25 mg/kg/injection, schedule: Q01DX001 (ip), vehicle: Klucel (hydroxypropylcellulose) (HPC)",110 % of control
same,T/C,"dose: 12.5 mg/kg/injection, schedule: Q01DX001 (ip), vehicle: Klucel (hydroxypropylcellulose) (HPC)",122 % of control
same,T/C,"dose: 18.5 mg/kg/injection, schedule: Q01DX001 (ip), vehicle: Klucel (hydroxypropylcellulose) (HPC)",112 % of control
same,T/C,"dose: 25.0 mg/kg/injection, schedule: Q01DX001 (ip), vehicle: saline",120 % of control
same,T/C,"dose: 50.0 mg/kg/injection, schedule: Q01DX001 (ip), vehicle: saline",118 % of control
Cc1cc(NC(=O)c2ccccc2)c(Cl)cc1N,T/C,[15],95 % of control
same,T/C,[13],95 % of control
same,T/C,[14],95 % of control
O=C(Nc1ccc2ccccc2c1)c1ccc(Cl)cc1Cl,T/C,"dose: 75.0 mg/kg/injection, schedule: Q01DX001 (ip), vehicle: saline with Tween-80",95 % of control
same,T/C,"dose: 150.0 mg/kg/injection, schedule: Q01DX001 (ip), vehicle: saline with Tween-80",86 % of control
same,T/C,"dose: 300.0 mg/kg/injection, schedule: Q01DX001 (ip), vehicle: saline with Tween-80",90 % of control
Cc1ccc(S(=O)(=O)N(C)CCC#N)cc1,T/C,[8],90 % of control
same,T/C,[5],90 % of control
same,T/C,[9],100 % of control
same,T/C,[6],100 % of control
same,T/C,[10],110 % of control
same,T/C,[7],109 % of control
CCCCCCCC(=O)Nc1ccc(C)cc1C,T/C,"dose: 100.0 mg/kg/injection, schedule: Q04DX003 (ip), vehicle: other",95 % of control
same,T/C,"dose: 200.0 mg/kg/injection, schedule: Q04DX003 (ip), vehicle: other",104 % of control
same,T/C,"dose: 400.0 mg/kg/injection, schedule: Q04DX003 (ip), vehicle: other",95 % of control
Cn1cc(/C=C\C(=O)O)c2nccnc21,T/C,"dose: 6.25 mg/kg/injection, schedule: Q01DX009 (ip), vehicle: water",96 % of control
same,T/C,"dose: 12.5 mg/kg/injection, schedule: Q01DX009 (ip), vehicle: water",90 % of control
same,T/C,[11],90 % of control
same,T/C,[12],102 % of control
